The text below walks through data of publication PMC8550792, “Evolution of kinase polypharmacology across HSP90 drug discovery” (Cell Chemical Biology, 2021).

Like-named read-outs stand apart in the source and are kept apart here.

Holding throughout (test): biochemical
Holding throughout (type): biochemical

Experiment [1] concerns the target T1, 382 unique human kinases (Homo sapiens, UniProt P22455).
T1 construct: purchased Reaction Biology (HotSpot contract assay)
The conditions noted are these: FGFR4, 10 uM; for remaining activity at 10 µM: read-out: % Enzyme Activity (relative to DMSO controls).

The target of experiment [2] is T2, 382 unique human kinases (Homo sapiens, UniProt Q16816).
T2 construct: purchased Reaction Biology (HotSpot contract assay)
T2 sequence (Q16816 whole entry): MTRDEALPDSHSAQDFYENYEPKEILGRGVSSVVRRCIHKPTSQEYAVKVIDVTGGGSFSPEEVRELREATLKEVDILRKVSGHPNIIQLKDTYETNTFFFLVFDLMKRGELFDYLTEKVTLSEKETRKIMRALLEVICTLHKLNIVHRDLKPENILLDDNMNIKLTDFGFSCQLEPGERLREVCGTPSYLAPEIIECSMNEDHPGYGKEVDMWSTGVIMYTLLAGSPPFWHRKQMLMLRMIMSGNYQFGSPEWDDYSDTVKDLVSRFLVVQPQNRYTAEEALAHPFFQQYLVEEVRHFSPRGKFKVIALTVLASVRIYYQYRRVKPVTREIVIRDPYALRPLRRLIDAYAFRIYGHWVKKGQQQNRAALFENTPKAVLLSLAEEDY
The conditions noted are these: kinase PHKg1, compound 10 uM; for remaining activity at 10 µM: read-out: % Enzyme Activity (relative to DMSO controls).

Experiment [3] deals with T3, 382 unique human kinases (Homo sapiens, UniProt P10721, V654A).
T3 construct: purchased Reaction Biology (HotSpot contract assay)
T3 sequence (P10721 26-976 V654A): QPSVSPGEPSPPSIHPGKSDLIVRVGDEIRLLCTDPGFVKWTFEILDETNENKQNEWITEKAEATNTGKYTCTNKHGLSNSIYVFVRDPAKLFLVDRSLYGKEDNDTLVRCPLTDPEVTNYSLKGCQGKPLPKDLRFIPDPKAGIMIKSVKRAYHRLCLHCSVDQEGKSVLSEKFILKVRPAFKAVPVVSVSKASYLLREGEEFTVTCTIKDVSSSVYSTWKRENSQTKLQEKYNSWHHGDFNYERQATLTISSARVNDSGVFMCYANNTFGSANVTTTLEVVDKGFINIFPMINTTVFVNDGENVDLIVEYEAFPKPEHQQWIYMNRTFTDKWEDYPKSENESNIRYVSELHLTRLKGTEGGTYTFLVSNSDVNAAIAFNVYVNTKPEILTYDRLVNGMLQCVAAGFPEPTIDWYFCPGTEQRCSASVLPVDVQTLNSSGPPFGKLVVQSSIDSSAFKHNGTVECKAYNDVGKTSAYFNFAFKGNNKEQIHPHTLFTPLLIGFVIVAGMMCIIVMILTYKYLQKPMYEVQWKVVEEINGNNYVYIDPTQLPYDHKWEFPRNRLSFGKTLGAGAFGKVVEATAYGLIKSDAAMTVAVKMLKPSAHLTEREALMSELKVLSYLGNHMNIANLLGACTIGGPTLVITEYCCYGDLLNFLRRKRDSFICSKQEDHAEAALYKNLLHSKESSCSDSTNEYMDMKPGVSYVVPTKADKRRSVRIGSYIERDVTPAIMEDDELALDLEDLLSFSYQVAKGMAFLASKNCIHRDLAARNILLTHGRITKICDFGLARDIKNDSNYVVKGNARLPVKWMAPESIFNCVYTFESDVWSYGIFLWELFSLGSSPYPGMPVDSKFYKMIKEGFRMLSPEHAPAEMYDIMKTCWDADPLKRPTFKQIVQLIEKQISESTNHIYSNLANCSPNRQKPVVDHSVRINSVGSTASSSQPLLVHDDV
The conditions noted are these: kinase c-Kit (V654A), compound 10 uM; for remaining activity at 10 µM: read-out: % Enzyme Activity (relative to DMSO controls).

The target in experiment [4] is T4, 382 unique human kinases (Homo sapiens, UniProt Q9Y243, G171R).
T4 construct: purchased Reaction Biology (HotSpot contract assay)
T4 sequence (Q9Y243 whole entry G171R): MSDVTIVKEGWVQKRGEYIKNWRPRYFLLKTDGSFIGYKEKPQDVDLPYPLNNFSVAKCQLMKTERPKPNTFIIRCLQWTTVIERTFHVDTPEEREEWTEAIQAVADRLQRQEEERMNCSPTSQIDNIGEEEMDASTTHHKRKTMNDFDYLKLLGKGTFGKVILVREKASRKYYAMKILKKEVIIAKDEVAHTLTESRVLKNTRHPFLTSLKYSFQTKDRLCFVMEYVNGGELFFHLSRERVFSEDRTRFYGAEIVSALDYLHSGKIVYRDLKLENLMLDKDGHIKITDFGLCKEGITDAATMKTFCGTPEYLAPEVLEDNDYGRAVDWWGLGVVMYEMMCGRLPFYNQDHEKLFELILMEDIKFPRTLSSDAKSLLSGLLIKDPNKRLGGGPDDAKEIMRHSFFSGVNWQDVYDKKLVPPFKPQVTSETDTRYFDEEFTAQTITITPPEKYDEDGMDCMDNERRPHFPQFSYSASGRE
The conditions noted are these: AKT3 (G171R), 10 uM; for remaining activity at 10 µM: read-out: % Enzyme Activity (relative to DMSO controls).

Experiment [5] deals with T5, 382 unique human kinases (Homo sapiens, UniProt P05129).
T5 construct: purchased Reaction Biology (HotSpot contract assay)
As to conditions: kinase PKCg, compound 10 uM; for remaining activity at 10 µM: read-out: % Enzyme Activity (relative to DMSO controls).

In experiment [6] the target is T6, 382 unique human kinases (Homo sapiens, UniProt Q8IW41).
T6 construct: purchased Reaction Biology (HotSpot contract assay)
T6 sequence (Q8IW41 1-473): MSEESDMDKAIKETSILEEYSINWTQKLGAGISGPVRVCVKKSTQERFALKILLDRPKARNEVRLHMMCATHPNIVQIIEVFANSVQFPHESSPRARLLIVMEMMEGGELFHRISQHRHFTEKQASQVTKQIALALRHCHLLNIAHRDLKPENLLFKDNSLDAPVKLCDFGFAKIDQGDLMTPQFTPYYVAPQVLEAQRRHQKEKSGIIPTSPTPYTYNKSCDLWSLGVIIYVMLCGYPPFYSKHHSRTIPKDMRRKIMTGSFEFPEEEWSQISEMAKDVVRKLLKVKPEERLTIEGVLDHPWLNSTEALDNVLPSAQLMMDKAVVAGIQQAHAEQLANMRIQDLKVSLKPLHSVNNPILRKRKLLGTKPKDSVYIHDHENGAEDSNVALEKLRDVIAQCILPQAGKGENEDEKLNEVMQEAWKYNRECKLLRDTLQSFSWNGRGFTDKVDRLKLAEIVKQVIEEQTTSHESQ
As to conditions: MAPKAPK5/PRAK, compound at 10 uM, duplicate values; for remaining activity at 10 µM: read-out: % Enzyme Activity (relative to DMSO controls).

The target of experiment [7] is T7, 382 unique human kinases (Homo sapiens, UniProt Q15835).
T7 construct: purchased Reaction Biology (HotSpot contract assay)
T7 sequence (Q15835 1-563): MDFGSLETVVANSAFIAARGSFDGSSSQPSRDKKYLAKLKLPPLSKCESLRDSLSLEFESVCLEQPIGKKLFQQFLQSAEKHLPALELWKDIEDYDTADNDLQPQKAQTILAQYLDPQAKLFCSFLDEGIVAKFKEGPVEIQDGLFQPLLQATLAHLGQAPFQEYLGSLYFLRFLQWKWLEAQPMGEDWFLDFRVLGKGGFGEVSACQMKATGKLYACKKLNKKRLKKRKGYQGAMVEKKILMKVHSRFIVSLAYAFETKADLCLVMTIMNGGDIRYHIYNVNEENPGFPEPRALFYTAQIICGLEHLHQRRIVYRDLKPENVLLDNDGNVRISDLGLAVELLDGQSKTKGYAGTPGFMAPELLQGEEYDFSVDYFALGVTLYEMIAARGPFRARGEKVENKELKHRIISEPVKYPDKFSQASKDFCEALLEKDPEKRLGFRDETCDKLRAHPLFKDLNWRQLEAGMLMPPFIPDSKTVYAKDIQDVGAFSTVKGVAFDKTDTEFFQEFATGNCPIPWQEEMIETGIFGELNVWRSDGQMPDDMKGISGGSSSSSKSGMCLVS
As to conditions: GRK1, 10 uM; for remaining activity at 10 µM: read-out: % Enzyme Activity (relative to DMSO controls).

The target of experiment [8] is T8, 382 unique human kinases (Homo sapiens, UniProt Q02763).
T8 construct: purchased Reaction Biology (HotSpot contract assay)
The conditions noted are these: for remaining activity at 10 µM: read-out: % Enzyme Activity (relative to DMSO controls).

The target of experiment [9] is T9, 382 unique human kinases (Homo sapiens, UniProt Q13177).
T9 construct: purchased Reaction Biology (HotSpot contract assay)
T9 sequence (Q13177 whole entry): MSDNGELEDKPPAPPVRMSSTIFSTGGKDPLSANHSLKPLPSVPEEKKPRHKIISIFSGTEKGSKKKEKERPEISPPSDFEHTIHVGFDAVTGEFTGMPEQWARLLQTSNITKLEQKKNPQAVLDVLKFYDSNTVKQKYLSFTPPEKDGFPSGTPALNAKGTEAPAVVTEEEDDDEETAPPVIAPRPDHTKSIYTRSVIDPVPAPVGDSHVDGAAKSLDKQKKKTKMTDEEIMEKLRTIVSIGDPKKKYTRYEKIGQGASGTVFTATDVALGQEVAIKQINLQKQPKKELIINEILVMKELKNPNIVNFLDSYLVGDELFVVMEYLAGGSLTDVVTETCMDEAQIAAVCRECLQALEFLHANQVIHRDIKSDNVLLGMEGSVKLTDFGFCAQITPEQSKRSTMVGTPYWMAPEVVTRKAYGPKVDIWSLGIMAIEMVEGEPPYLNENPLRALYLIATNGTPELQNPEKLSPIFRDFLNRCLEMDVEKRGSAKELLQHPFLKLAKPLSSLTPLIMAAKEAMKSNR
The conditions noted are these: PAK2, 10 uM; for remaining activity at 10 µM: read-out: % Enzyme Activity (relative to DMSO controls).

For experiment [10], the target named is T10, 382 unique human kinases (Homo sapiens, UniProt Q04912).
T10 construct: purchased Reaction Biology (HotSpot contract assay)
As to conditions: RON/MST1R, 10 uM; for remaining activity at 10 µM: read-out: % Enzyme Activity (relative to DMSO controls).

In experiment [11] the target is T11, 382 unique human kinases (Homo sapiens, UniProt P51955).
T11 construct: purchased Reaction Biology (HotSpot contract assay)
T11 sequence (P51955 1-445): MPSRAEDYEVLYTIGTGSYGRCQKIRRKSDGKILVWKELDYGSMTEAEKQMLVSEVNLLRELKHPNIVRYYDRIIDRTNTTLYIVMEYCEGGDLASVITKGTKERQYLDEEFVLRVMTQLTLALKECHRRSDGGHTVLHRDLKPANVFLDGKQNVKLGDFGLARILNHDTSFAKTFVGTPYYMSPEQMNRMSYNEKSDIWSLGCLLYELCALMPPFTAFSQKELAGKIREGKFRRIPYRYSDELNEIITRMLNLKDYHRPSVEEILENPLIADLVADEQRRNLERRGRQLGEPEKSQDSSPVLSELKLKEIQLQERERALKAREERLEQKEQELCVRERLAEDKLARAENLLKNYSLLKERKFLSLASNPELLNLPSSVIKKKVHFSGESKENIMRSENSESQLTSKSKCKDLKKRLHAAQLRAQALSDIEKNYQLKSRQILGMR
As to conditions: NEK2, [ATP] 10 µM, compound 10 uM; for remaining activity at 10 µM: read-out: % Enzyme Activity (relative to DMSO controls).

For experiment [12], the target named is T12, 382 unique human kinases (Homo sapiens, UniProt P10721, D816H).
T12 construct: purchased Reaction Biology (HotSpot contract assay)
T12 sequence (P10721 26-976 D816H): as the sequence (P10721 26-976 V654A) above, with A629V, D791H counted along it
As to conditions: c-Kit (D816H), [ATP] 5 µM, compound 10 uM; for remaining activity at 10 µM: read-out: % Enzyme Activity (relative to DMSO controls).

Experiment [13] has as its target T13, 382 unique human kinases (Homo sapiens, UniProt Q9UM73, S1206R).
T13 construct: purchased Reaction Biology (HotSpot contract assay)
The conditions noted are these: ALK (S1206R), [ATP] 20 µM, compound 10 uM; for remaining activity at 10 µM: read-out: % Enzyme Activity (relative to DMSO controls).

Experiment [14] addresses T14, 382 unique human kinases (Homo sapiens, UniProt P00519, G250E).
T14 construct: purchased Reaction Biology (HotSpot contract assay)
As to conditions: ABL1 (G250E), [ATP] 10 µM, compound 10 uM; for remaining activity at 10 µM: read-out: % Enzyme Activity (relative to DMSO controls).

The target of experiment [15] is T15, 382 unique human kinases (Homo sapiens, UniProt P78368).
T15 construct: purchased Reaction Biology (HotSpot contract assay)
T15 sequence (P78368 whole entry): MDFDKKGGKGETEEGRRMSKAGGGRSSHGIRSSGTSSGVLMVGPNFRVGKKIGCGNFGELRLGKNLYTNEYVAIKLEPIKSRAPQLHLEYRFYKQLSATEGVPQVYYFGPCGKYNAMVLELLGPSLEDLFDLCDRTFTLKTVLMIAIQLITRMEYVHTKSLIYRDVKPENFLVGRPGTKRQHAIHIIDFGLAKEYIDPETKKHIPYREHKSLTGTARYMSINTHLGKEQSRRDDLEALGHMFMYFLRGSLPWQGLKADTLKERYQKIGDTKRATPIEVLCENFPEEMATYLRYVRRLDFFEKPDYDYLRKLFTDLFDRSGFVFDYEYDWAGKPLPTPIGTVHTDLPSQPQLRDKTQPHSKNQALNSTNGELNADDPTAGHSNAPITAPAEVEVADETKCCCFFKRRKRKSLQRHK
The conditions noted are these: CK1g2, 10 uM; for remaining activity at 10 µM: read-out: % Enzyme Activity (relative to DMSO controls).

In experiment [16] the target is T16, 382 unique human kinases (Homo sapiens, UniProt Q15349).
T16 construct: purchased Reaction Biology (HotSpot contract assay)
T16 sequence (Q15349 whole entry): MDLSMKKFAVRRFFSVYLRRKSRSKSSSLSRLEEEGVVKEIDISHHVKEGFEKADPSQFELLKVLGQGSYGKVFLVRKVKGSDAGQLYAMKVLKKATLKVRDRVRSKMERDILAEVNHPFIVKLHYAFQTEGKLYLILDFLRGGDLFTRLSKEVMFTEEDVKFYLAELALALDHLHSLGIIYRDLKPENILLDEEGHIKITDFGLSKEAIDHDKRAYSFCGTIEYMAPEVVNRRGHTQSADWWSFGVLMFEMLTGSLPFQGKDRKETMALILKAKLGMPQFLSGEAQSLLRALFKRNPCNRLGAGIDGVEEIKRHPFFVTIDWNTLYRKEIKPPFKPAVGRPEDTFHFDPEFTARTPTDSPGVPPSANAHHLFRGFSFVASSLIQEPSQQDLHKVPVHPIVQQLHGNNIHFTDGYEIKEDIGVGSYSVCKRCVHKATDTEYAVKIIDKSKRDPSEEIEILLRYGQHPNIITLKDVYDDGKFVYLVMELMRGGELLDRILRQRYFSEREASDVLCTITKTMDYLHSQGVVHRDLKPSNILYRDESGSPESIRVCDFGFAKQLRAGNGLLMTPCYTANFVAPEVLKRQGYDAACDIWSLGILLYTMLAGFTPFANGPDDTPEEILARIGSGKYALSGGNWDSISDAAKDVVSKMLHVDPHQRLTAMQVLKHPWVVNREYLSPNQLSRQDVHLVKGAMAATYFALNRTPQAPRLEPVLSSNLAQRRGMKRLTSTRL
The conditions noted are these: RSK3, 10 uM; for remaining activity at 10 µM: read-out: % Enzyme Activity (relative to DMSO controls).

For experiment [17], the target named is T17, 382 unique human kinases (Homo sapiens, UniProt P00533, DEL747-749).
T17 construct: purchased Reaction Biology (HotSpot contract assay)
The conditions noted are these: EGFR (d747-749), 10 uM; for remaining activity at 10 µM: read-out: % Enzyme Activity (relative to DMSO controls).

[18] abbreviates: TIE2/TEK, compound at 10 uM, duplicate values.

T1 sequence (P22455 22-802): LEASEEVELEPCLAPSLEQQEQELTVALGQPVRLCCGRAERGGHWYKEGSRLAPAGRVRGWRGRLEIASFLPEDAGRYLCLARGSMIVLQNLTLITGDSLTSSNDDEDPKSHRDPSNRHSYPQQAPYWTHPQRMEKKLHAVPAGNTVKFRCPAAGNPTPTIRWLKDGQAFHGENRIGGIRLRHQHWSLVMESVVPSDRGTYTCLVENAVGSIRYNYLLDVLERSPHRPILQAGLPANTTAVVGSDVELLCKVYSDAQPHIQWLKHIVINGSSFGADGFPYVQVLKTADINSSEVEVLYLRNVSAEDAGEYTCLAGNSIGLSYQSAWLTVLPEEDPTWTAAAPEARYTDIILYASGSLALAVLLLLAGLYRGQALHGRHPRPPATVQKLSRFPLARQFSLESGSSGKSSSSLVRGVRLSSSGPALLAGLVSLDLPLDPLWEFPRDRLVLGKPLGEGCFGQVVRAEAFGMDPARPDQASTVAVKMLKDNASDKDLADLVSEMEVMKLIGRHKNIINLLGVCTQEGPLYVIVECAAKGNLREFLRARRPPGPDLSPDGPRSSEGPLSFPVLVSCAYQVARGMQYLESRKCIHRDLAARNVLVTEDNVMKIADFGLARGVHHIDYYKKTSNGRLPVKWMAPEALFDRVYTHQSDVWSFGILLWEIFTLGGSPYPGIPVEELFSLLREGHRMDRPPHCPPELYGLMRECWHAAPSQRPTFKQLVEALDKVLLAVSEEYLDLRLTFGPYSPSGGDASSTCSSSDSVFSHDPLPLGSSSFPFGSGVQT

For `CC(C)c1cc(-c2n[nH]c(=O)n2-c2ccc3c(ccn3C)c2)c(O)cc1O` [Ganetespib (STA9090)], the remaining activity at 10 µM at 382 unique human kinases [1] worked out at 71.5%; on 382 unique human kinases [2], 88.5%; at 382 unique human kinases [3], 81.4%; on 382 unique human kinases [4], 67.1%; on 382 unique human kinases [5] it was 91.3%; on 382 unique human kinases [6] it was 102%. Besides, the remaining activity at 10 µM at 382 unique human kinases [7] is 76%; at 382 unique human kinases [8] (TIE2 (A1124V), 10 uM), 71%; on 382 unique human kinases [8] (setting [18]) it was 101%.

`CC(C)c1cc(-c2n[nH]c(=O)n2-c2ccc3c(ccn3C)c2)c(O)cc1O` [Ganetespib]: the remaining activity at 10 µM at 382 unique human kinases [9] is 99.6%; on 382 unique human kinases [10], 106%; on 382 unique human kinases [11], 51.6%; on 382 unique human kinases [12], 46.4%; on 382 unique human kinases [13], 42%; at 382 unique human kinases [14], 5.88%. The remaining activity at 10 µM at 382 unique human kinases [15] is 110%; at 382 unique human kinases [16] it was 119%; at 382 unique human kinases [17], 96.5%.

For `CCNC(=O)c1noc(-c2cc(C(C)C)c(O)cc2O)c1-c1ccc(CN2CCOCC2)cc1` [Luminespib (AUY-922)], the “% Enzyme Activity (relative to DMSO controls)” value at 382 unique human kinases [1] was 96.06%; at 382 unique human kinases [2], 96.94%; on 382 unique human kinases [3], 85.21%; at 382 unique human kinases [4] it was 93.37%; at 382 unique human kinases [5], 97.02%; at 382 unique human kinases [6] it was 101.76%. Moreover, the “% Enzyme Activity (relative to DMSO controls)” value on 382 unique human kinases [7] worked out at 85.44%; on 382 unique human kinases [8] (TIE2 (A1124V), 10 uM), 95.16%; at 382 unique human kinases [8] (setting [18]), 106.94%. Besides, the remaining activity at 10 µM at 382 unique human kinases [1] is 97.1%; on 382 unique human kinases [2], 98.2%; at 382 unique human kinases [3], 85.8%; on 382 unique human kinases [4], 98.6%; at 382 unique human kinases [5], 99.7%; on 382 unique human kinases [6] it was 104%. In addition, the remaining activity at 10 µM on 382 unique human kinases [7] is 85.9%; on 382 unique human kinases [8] (TIE2 (A1124V), 10 uM), 96.5%; at 382 unique human kinases [8] (setting [18]), 108%.

Regarding `CCNC(=O)c1noc(-c2cc(C(C)C)c(O)cc2O)c1-c1ccc(CN2CCOCC2)cc1` [Luminespib], the “% Enzyme Activity (relative to DMSO controls)” value is 99.27% at 382 unique human kinases [9]; 94.46% on 382 unique human kinases [10]; 101.57% on 382 unique human kinases [11]; 83.99% at 382 unique human kinases [12]; 100.88% at 382 unique human kinases [13]; 5.81% on 382 unique human kinases [14]. The “% Enzyme Activity (relative to DMSO controls)” value was determined as 97.43% at 382 unique human kinases [15], 94.51% at 382 unique human kinases [16] and 98.26% at 382 unique human kinases [17]. Also, the remaining activity at 10 µM came out at 99.3% at 382 unique human kinases [9]; 100% at 382 unique human kinases [10]; 103% at 382 unique human kinases [11]; 84.3% at 382 unique human kinases [12]; 104% on 382 unique human kinases [13]; 5.9% on 382 unique human kinases [14]. The remaining activity at 10 µM at 382 unique human kinases [15] is 99.4%; at 382 unique human kinases [16] it was 95.2%; on 382 unique human kinases [17], 99.3%.
